Reference: patent US12590864B2, “Wind tunnel for assessment of insecticides” (EAST CAROLINA UNIVERSITY, priority 2023, dated 2026)

Columns and labels:
[1] = system: Cx. pipiens complex; settings: five field populations; cited from earlier work
[2] = system: Culex pipiens/quinquefasciatus; experiment: CDC bottle bioassay (AI residue); assay type: in vivo; settings: 30 min DT; for mortality at the DT: 8 μg/mL residue
Procedure: (§1) Separate mosquitoes from the same populations used in wind tunnel experiments were also used in bottle bioassays, except for Ae. albopictus, F1, Craven County, NC that were used in wind tunnel but not bottle bioassays due to low sample size. Female mosquitoes (4-5 d old) were aspirated from colony cages, transferred to 500 mL glass Wheaton bottles (N=11-20 mosquitoes in each of three to four replicate bottles), and exposed constantly to technical grade permethrin AI residue (8 μg/mL) (Chem Service, Westchester, Pennsylvania) for a 120 min period using established CDC bottle bioassay methods and mortality was monitored/recorded at 0, 15, 30, 60, and 120 min (CDC 2013, 2019; Richards et al. 2017ab, 2019). Bottle bioassay control groups were transferred to clean bottles following the same established methods (CDC 2013, 2019; Richards et al. 2017ab, 2019). Diagnostic dose and diagnostic time (DT) were determined using susceptible populations of Ae. albopictus and Cx. quinquefasciatus (data not shown).
(§2) Female mosquitoes (4-5 d old) were aspirated from a separate colony cages, transferred to 500 mL glass Wheaton bottles, and exposed to AI residue using established CDC bottle bioassay methods and mortality was monitored/recorded at 15, 30, 60, and 120 min (FIG. 8). Bottle bioassay control groups were transferred to clean bottles following established methods (CDC 2013, 2019). At the 30 min DT for permethrin, Ae. albopictus, F48, Orleans Parish, Ae. albopictus, F0, New Hanover County, and Cx. pipiens quinquefasciatus, F219, Johannesburg were classified as susceptible (100% mortality at the DT); however, Cx. pipiens/quinquefasciatus, F1, New Hanover County (69% mortality) and Cx. pipiens/quinquefasciatus, F1, Pitt County County (57% mortality) were classified as resistant. FIG. 9 is a bar graph of the mortality of types of mosquitoes in the wind tunnel during bioassay exposure to permethrin.

[3] = system: Aedes albopictus; experiment: CDC bottle bioassay (AI residue); assay type: in vivo; settings: 30 min DT, Ae. albopictus; for mortality at the DT: 8 μg/mL residue
Procedure: as §1, §2

[4] = Cx. pipiens quinquefasciatus, F219, Johannesburg
[5] = Cx. pipiens/quinquefasciatus, F1, New Hanover County
[6] = Cx. pipiens/quinquefasciatus, F1, Pitt County

| Structure (SMILES) | resistance classification [1] | mortality at the DT [2, 4] | mortality at the DT [2, 5] | mortality at the DT [2, 6] | resistance classification [2, 4] | resistance classification [2, 5] | resistance classification [2, 6] | mortality at the DT ([3]; F0, New Hanover County) | mortality at the DT ([3]; F48, Orleans Parish) | resistance classification ([3]; F0, New Hanover County) | resistance classification ([3]; F48, Orleans Parish) |
| --- | --- | --- | --- | --- | --- | --- | --- | --- | --- | --- | --- |
| CC(C)=CC1C(C(=O)OCc2cccc(Oc3ccccc3)c2)C1(C)C (stereo not drawn) [Sumethrin®, d-phenothrin] | resistant | – | – | – | – | – | – | – | – | – | – |
| CC1(C)C(C=C(Cl)Cl)C1C(=O)OCc1cccc(Oc2ccccc2)c1 (centres unmarked) [permethrin] | – | 100% | 69% | 57% | susceptible | resistant | resistant | 100% | 100% | susceptible | susceptible |
